Assay results from patent EP0909175B1, “NON-AQUEOUS PROTIC PEPTIDE FORMULATIONS” (ALZA CORPORATION, priority 1996, dated 1998).

Tests used:
Assay type in all cases: physicochemical
[1] = Solubility studies of leuprolide acetate in PG (Example 3); settings: in PG (w/w), heated at 80°C to accelerate dissolution
Protocol: Leuprolide acetate (obtained, for example, from Mallinckrodt, St. Louis, Missouri) was weighed and dissolved using heat (80°C), swirling, agitation and/or centrifugation as needed, in vehicle (PG, PEG, MPEG, PG/H2O, PG/H2O, PEG/PG, MPEG/H2O, or PG with EDTA) at the appropriate concentration (w/w). Unless otherwise noted the term PEG means PEG 300. The term dry PG refers to PG formulations prepared in a low moisture environment (i.e., dry N2 atmosphere). Leuprolide acetate formulations in PG were prepared as described above. Formulations were heated at 80°C to accelerate the dissolution of leuprolide in PG.

[2] = Anti-gellant effect of adding polar aprotic solvents (DMSO) to non-aqueous protic solvent formulations; settings: adding polar aprotic solvents such as DMSO to non-aqueous protic solvent formulation
From the text: For example, leuprolide can be induced to gel by increasing peptide concentration, introduction of salts or gentle agitation. Improving physical stability can allow for easier parenteral administration, including administration using implantable drug delivery systems.
Thus, these solvents have an anti-gellant effect.

[3] = Stability of goserelin formulations, one month at 37°C, RP-HPLC (Example 10); settings: for % CONCENTRATION: patent calls % concentration data unreliable
Protocol: (§1) Stability samples were analyzed using RP-HPLC. The area under the curve for the leuprolide peak divided by the sum of the areas under the curve of all peaks gave % purity. [It should be noted that the data for % concentration presented with the % purity data (Examples 6, 8, 9 and 10) are inconclusive. The analysis methods used to determine % concentration in these experiments were unreliable.]
Formulations of 40-45% (w/w) goserelin in either PEG 600 or PG/acetate buffer (30:70) were prepared as described above and placed in polymeric containers. The containers were stored at 37°C for one month in an incubator. The samples were analyzed using RP-HPLC to determine the chemical stability of the aged formulations.

[4] = Stability of nafarelin formulations, one month at 37°C, RP-HPLC (Example 11); settings: for % CONCENTRATION: % concentration method called unreliable
Protocol: as §1
Formulations of 15% (w/w) nafarelin in either PEG 600 or propylene glycol were prepared as described above for leuprolide and placed in polymeric containers.
The containers were stored at 37°C for one month in an incubator.
The samples were analyzed using RP-HPLC to determine the chemical stability of the aged formulations.

[5] = vehicle PEG 600, one month at 37°C

Leuprolide acetate
% Leuprolide Acetate ([1]; 146.8 mg leuprolide acetate in 147.2 mg PG): 49.93% | % Leuprolide Acetate ([1]; 148.6 mg leuprolide acetate in 225.7 mg PG): 39.70% | % Leuprolide Acetate ([1]; 154 mg leuprolide acetate in 183.7 mg PG): 45.60%

goserelin
gelation of the formulation [2]: prevents gelation | % PURITY ([3]; vehicle PEG 600, 40-45% (w/w), one month at 37°C): 99.3% | % CONCENTRATION [3, 5]: 23.6% | % PURITY ([3]; vehicle PG/Acetate Buffer(30:70), 40-45% (w/w), one month at 37°C): 98.2% | % CONCENTRATION ([3]; vehicle PG/Acetate Buffer(30:70), one month at 37°C): 49.7%

leuprolide
gelation of the formulation [2]: prevents gelation

calcitonin
gelation of the formulation [2]: prevents gelation

nafarelin
% PURITY ([4]; vehicle PEG 600, 15% (w/w), one month at 37°C): 99.4% | % CONCENTRATION [4, 5]: 15.8% | % PURITY ([4]; vehicle PG, 15% (w/w), one month at 37°C): 99.4% | % CONCENTRATION ([4]; vehicle PG, one month at 37°C): 12.9%
